How the values were obtained:
[1] = biological target: T1, Prostaglandin G/H synthase 1 (Ovis aries, UniProt P05979); assay: Inhibition of sheep COX1 measured by oxygen consumption
T1 sequence (P05979 whole entry): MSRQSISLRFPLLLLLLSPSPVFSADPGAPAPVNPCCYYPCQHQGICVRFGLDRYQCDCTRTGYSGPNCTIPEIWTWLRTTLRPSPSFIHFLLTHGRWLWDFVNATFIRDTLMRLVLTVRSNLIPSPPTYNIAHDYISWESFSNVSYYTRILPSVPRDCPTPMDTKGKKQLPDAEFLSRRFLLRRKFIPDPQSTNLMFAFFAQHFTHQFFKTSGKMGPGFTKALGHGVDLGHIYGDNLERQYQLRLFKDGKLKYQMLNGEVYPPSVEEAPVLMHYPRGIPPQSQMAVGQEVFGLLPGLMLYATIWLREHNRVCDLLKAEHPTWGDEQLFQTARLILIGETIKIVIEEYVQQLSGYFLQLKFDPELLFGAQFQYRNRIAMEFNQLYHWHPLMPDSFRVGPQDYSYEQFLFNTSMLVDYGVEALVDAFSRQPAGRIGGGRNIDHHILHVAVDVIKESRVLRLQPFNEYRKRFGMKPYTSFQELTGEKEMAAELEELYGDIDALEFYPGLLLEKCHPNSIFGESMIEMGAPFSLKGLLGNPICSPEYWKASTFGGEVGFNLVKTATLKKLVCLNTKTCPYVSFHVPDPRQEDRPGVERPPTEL

[2] = biological target: T2, Prostaglandin G/H synthase 1 (Ovis aries) (UniProt P05979); assay: Inhibition of sheep COX1 measured by oxygen consumption at 100 uM
T2 sequence (whole entry): T1 sequence (P05979 whole entry)

CC(C)C(=O)c1c(O)cc(O)cc1O[C@@H]1O[C@H](CO)[C@@H](O)[C@H](O)[C@H]1O
IC50 [1]: 23.7 µM

CC(C)C(=O)c1c(O)cc(O)cc1O [PHLOROISOBUTYROPHENONE]
IC50 [1]: 3.8 µM

CC(C)CC(=O)c1c(O)cc(O)cc1O[C@@H]1O[C@H](CO)[C@@H](O)[C@H](O)[C@H]1O
inhibition [2]: 12%

CC(C)C(=O)c1c(O)cc(O[C@@H]2O[C@H](CO)[C@@H](O)[C@H](O)[C@H]2O)cc1O
IC50 [1]: 58.7 µM

Oc1cc(O)cc(O)c1 [PHLOROGLUCINOL]
AC50 [1]: Active

CCC(C)C(=O)c1c(O)cc(O)cc1O[C@@H]1O[C@H](CO)[C@@H](O)[C@H](O)[C@H]1O (stereo partly specified)
IC50 [1]: 131 µM
